Legend:
[1] = Surface potential of LNP preparation (Malvern Zetasizer Ultra); type: physicochemical; conditions: Table 3; LNP 40:11:47.4:1.6, N/P 8:1
Method: (§1) In this example, the ionizable lipids prepared from Preparation Example 3 to Preparation Example 17 were selected. Following the same method as in Example 1, an LNP preparation (encapsulating Fluc mRNA) was prepared according to a molar ratio and a nitrogen-to-phosphorus ratio shown in Table 3. Malvern Zetasizer Ultra was used to measure a particle size, a PDI, and a surface potential of each LNP preparation; a Quant-it Ribogreen RNA quantification assay kit (manufacturer: ThermoFisher Scientific, item number: R11490) was used to measure encapsulation efficiency of LNP; and a dye binding test of 6-(p-Toluidino)-2-naphthalene sulfonic acid sodium salt (TNS, purchased from Nanjing Xize Pharmaceutical Technology Co., Ltd., item number: XZ0743) was used to measure pKa of the LNP.

[2] = pKa of LNP by TNS dye binding test; type: physicochemical; conditions: Table 3, pKa of the LNP, 40:11:47.4:1.6, N/P 8:1
Method: as §1

female Balb/C mice [3] = test: In-vivo bioluminescence (overall luminescence intensity, AUC) after tail vein injection of Fluc mRNA LNP; conditions: 5 μg/mouse, liver site, Table 3 LNP
[4] = Particle size and PDI of LNP preparation by dynamic light scattering (Malvern Zetasizer Ultra); type: physicochemical
female Balb/C mice [5] = test: In-vivo bioluminescence at lower limb administration site after intramuscular injection of Fluc mRNA LNP; conditions: 5 μg/mouse, Table 3 LNP
Method: In this example, LQ104-1 to LQ104-8 (encapsulating Fluc mRNA) from Example 1 were injected via tail vein into female Balb/C mice (Viton Lihua) aged 6 to 8 weeks at a dose of 5 μg/mouse (n=3, i.e. 3 mice were used for injection and testing in each group, and the data results presented were the mean measurements of each group). […] potassium salt was intraperitoneally injected at specific time points after administration (in this example, 6th hour, 24th hour, and 48th hour), and then the luminescence was detected by an IVIS Spectrum small animal living imager instrument (manufacturer: PerkinElmer). The overall luminescence intensity of live expression sites (such as the liver) in mice was counted. […] The overall luminescence intensity was the luminescence intensity data, measured by bioluminescence imaging, of the luminescent site obtained 6 to 15 minutes (min) after intraperitoneal injection of […] potassium salt. The overall luminescence intensity of the in vivo expression area was counted by using Living Image software (manufacturer: PerkinElmer), furthermore, an area under the curve (AUC, unit: p/s*hour) was calculated by using GraphPad software, and the AUC in each example of the present application is the area under the curve of a line connecting measurement points of the overall luminescence intensity from the 4th or 6th hour after drug administration (using the experimental method of the present application, peak values are the same from 3-6 hours after drug administration) to the 48th hour after drug administration. Test results were shown in FIG. 3 and FIG. 4A, as well as Table 2.
Furthermore, referring to the mouse in-vivo experimental method of Example 3, each group of LNP preparations in this example was injected into female Balb/C mice aged 6 to 8 weeks through tail vein injection or intramuscular injection of the lower limbs at a dose of 5 μg/mouse. The overall luminescence intensity of the liver or lower limb administration site was counted, and the test results were shown in FIG. 5A to FIG. 5D and Table 4A to Table 4D). […]

[6] = Encapsulation efficiency of LNP (Quant-it Ribogreen RNA quantitative assay kit); type: physicochemical
female Balb/C mice [7] = test: Total Spike antibody titer in serum (ELISA) after intramuscular injection of Spike mRNA LNP; type: in vivo; conditions: 2 μg/mouse, second injection on 21st day, serum 7th day after second administration, n=8, compared with PBS
[8] = Table 3, LNP 40:11:47.4:1.6, N/P 8:1
[9] = Table 3, LNP lipid:DSPC:cholesterol:DMG-PEG = 40:11:47.4:1.6, nitrogen-to-phosphorus ratio 8:1, Fluc mRNA
[10] = Table 1, Example 1 LNP preparations

## CCCCCCCC(CCCCCCC)OC(=O)CCCCCN(CCO)CCN(CCO)CCCCCC(=O)OC(CCCCCCC)CCCCCCC [LQ104-E15b-1]
[1]
  Surface potential (mV): −4.22 mV
[2]
  pKa: 6.754
Female Balb/C mice [3]; Table 4A (FIG. 5A)
  AUC (p/s*hour): 2.26E+10 p/s*hour
[4]; [8]
  PDI: 0.059
[4]; [9]
  Particle size (nm): 71.08 nm
Female Balb/C mice [5]; Table 4C (FIG. 5C)
  AUC (p/s*hour): 5.58E+09 p/s*hour
[6]; [8]
  Encapsulation efficiency (%): 98.1%

## CCCCCCCCC(CCCCCCCC)OC(=O)CCCCN(CCO)CCN(CCO)CCCCC(=O)OC(CCCCCCCC)CCCCCCCC [LQ104-E15b-2]
[1]
  Surface potential (mV): −6.81 mV
[2]
  pKa: 6.470
[4]; [8]
  PDI: 0.059
[4]; [9]
  Particle size (nm): 56.47 nm
[6]; [8]
  Encapsulation efficiency (%): 96.8%

## CCCCCCCCCC(CCCCCCCCC)OC(=O)CCCN(CCO)CCN(CCO)CCCC(=O)OC(CCCCCCCCC)CCCCCCCCC [LQ104-E15b-3]
[1]
  Surface potential (mV): −10.70 mV
[2]
  pKa: 6.161
[4]; [8]
  PDI: 0.083
[4]; [9]
  Particle size (nm): 52.80 nm
[6]; [8]
  Encapsulation efficiency (%): 96.0%

## CCCCCCCC(CCCCCCC)OC(=O)CCCCCCN(CCO)CCN(CCO)CCCCCCC(=O)OC(CCCCCCC)CCCCCCC [LQ104-E16b-1]
[1]
  Surface potential (mV): −3.35 mV
[2]
  pKa: 7.109
Female Balb/C mice [3]; Table 4A (FIG. 5A)
  AUC (p/s*hour): 2.74E+10 p/s*hour
[4]; [8]
  PDI: 0.044
[4]; [9]
  Particle size (nm): 84.84 nm
Female Balb/C mice [5]; Table 4C (FIG. 5C)
  AUC (p/s*hour): 2.30E+09 p/s*hour
[6]; [8]
  Encapsulation efficiency (%): 97.2%

## CCCCCCCCC(CCCCCCCC)OC(=O)CCCCCN(CCO)CCN(CCO)CCCCCC(=O)OC(CCCCCCCC)CCCCCCCC [LQ104-E16b-2]
[1]
  Surface potential (mV): −4.38 mV
[2]
  pKa: 6.761
Female Balb/C mice [3]; Table 4A (FIG. 5A)
  AUC (p/s*hour): 8.98E+10 p/s*hour
[4]; [8]
  PDI: 0.098
[4]; [9]
  Particle size (nm): 75.44 nm
Female Balb/C mice [5]; Table 4C (FIG. 5C)
  AUC (p/s*hour): 3.50E+09 p/s*hour
[6]; [8]
  Encapsulation efficiency (%): 97.9%

## CCCCCCCCC(CCCCCC)C(=O)OCCCCCN(CCO)CCN(CCO)CCCCCOC(=O)C(CCCCCC)CCCCCCCC (stereo not drawn) [LQ104-E16b-3R]
[1]
  Surface potential (mV): −4.59 mV
[2]
  pKa: 6.802
Female Balb/C mice [3]; Table 4A (FIG. 5A)
  AUC (p/s*hour): 1.47E+10 p/s*hour
[4]; [8]
  PDI: 0.088
[4]; [9]
  Particle size (nm): 89.68 nm
Female Balb/C mice [5]; Table 4C (FIG. 5C)
  AUC (p/s*hour): 2.19E+09 p/s*hour
[6]; [8]
  Encapsulation efficiency (%): 96.8%

## CCCCCCCCC(CCCCCC)OC(=O)CCCCCN(CCO)CCN(CCO)CCCCCC(=O)OC(CCCCCC)CCCCCCCC (stereo not drawn) [LQ104-E16b-3]
[1]
  Surface potential (mV): −5.94 mV
[2]
  pKa: 6.773
Female Balb/C mice [3]; Table 4A (FIG. 5A)
  AUC (p/s*hour): 1.95E+10 p/s*hour
[4]; [8]
  PDI: 0.091
[4]; [9]
  Particle size (nm): 78.35 nm
Female Balb/C mice [5]; Table 4C (FIG. 5C)
  AUC (p/s*hour): 2.10E+09 p/s*hour
[6]; [8]
  Encapsulation efficiency (%): 97.6%

## CCCCCCCC(CCCCCCC)OC(=O)CCCCCCCN(CCO)CCN(CCO)CCCCCCCC(=O)OC(CCCCCCC)CCCCCCC [LQ104-E17b-1]
[1]
  Surface potential (mV): −1.066 mV
[2]
  pKa: 7.19
Female Balb/C mice [3]; Table 4B (FIG. 5B)
  AUC (p/s*hour): 3.16E+10 p/s*hour
[4]; [8]
  PDI: 0.082
[4]; [9]
  Particle size (nm): 85.67 nm
Female Balb/C mice [5]; Table 4D (FIG. 5D)
  AUC (p/s*hour): 2.66E+09 p/s*hour
[6]; [8]
  Encapsulation efficiency (%): 96.9%

## CCCCCCCCC(CCCCCCCC)OC(=O)CCCCCCN(CCO)CCN(CCO)CCCCCCC(=O)OC(CCCCCCCC)CCCCCCCC [LQ104-E17b-2]
[1]
  Surface potential (mV): −1.852 mV
[2]
  pKa: 6.852
Female Balb/C mice [3]; Table 4B (FIG. 5B)
  AUC (p/s*hour): 5.58E+10 p/s*hour
[4]; [8]
  PDI: 0.045
[4]; [9]
  Particle size (nm): 74.14 nm
Female Balb/C mice [5]; Table 4D (FIG. 5D)
  AUC (p/s*hour): 2.49E+09 p/s*hour
[6]; [8]
  Encapsulation efficiency (%): 97.4%

## CCCCCCCCC(CCCCCC)C(=O)OCCCCCCN(CCO)CCN(CCO)CCCCCCOC(=O)C(CCCCCC)CCCCCCCC (stereo not drawn) [LQ104-E17b-3R]
[1]
  Surface potential (mV): −2.203 mV
[2]
  pKa: 7.153
Female Balb/C mice [3]; Table 4B (FIG. 5B)
  AUC (p/s*hour): 6.33E+09 p/s*hour
[4]; [8]
  PDI: 0.087
[4]; [9]
  Particle size (nm): 77.34 nm
Female Balb/C mice [5]; Table 4D (FIG. 5D)
  AUC (p/s*hour): 1.47E+09 p/s*hour
[6]; [8]
  Encapsulation efficiency (%): 97.4%

## CCCCCCCCC(CCCCCC)OC(=O)CCCCCCN(CCO)CCN(CCO)CCCCCCC(=O)OC(CCCCCC)CCCCCCCC (stereo not drawn) [LQ104-E17b-3]
[1]
  Surface potential (mV): −2.788 mV
[2]
  pKa: 7.15
Female Balb/C mice [3]; Table 4B (FIG. 5B)
  AUC (p/s*hour): 9.91E+10 p/s*hour
[4]; [8]
  PDI: 0.058
[4]; [9]
  Particle size (nm): 85.57 nm
Female Balb/C mice [5]; Table 4D (FIG. 5D)
  AUC (p/s*hour): 3.82E+09 p/s*hour
[6]; [8]
  Encapsulation efficiency (%): 97.4%

## CCCCCCCCCC(CCCCCCC)OC(=O)CCCCCN(CCO)CCN(CCO)CCCCCC(=O)OC(CCCCCCC)CCCCCCCCC (stereo not drawn) [LQ104-E17b-4]
[1]
  Surface potential (mV): −3.406 mV
[2]
  pKa: 6.469
Female Balb/C mice [3]; Table 4B (FIG. 5B)
  AUC (p/s*hour): 7.68E+10 p/s*hour
[4]; [8]
  PDI: 0.061
[4]; [9]
  Particle size (nm): 72.30 nm
Female Balb/C mice [5]; Table 4D (FIG. 5D)
  AUC (p/s*hour): 2.86E+09 p/s*hour
[6]; [8]
  Encapsulation efficiency (%): 98.0%

## CCCCCCCCC(CCCCCC)C(=O)OCCCCCCCN(CCO)CCN(CCO)CCCCCCCOC(=O)C(CCCCCC)CCCCCCCC (stereo not drawn) [LQ104-E18b-2R]
[1]
  Surface potential (mV): −2.013 mV
[2]
  pKa: 7.033
Female Balb/C mice [3]; Table 4B (FIG. 5B)
  AUC (p/s*hour): 1.01E+10 p/s*hour
[4]; [8]
  PDI: 0.081
[4]; [9]
  Particle size (nm): 80.10 nm
Female Balb/C mice [5]; Table 4D (FIG. 5D)
  AUC (p/s*hour): 1.73E+09 p/s*hour
[6]; [8]
  Encapsulation efficiency (%): 97.4%

## CCCCCCCCC(CCCCCC)OC(=O)CCCCCCCN(CCO)CCN(CCO)CCCCCCCC(=O)OC(CCCCCC)CCCCCCCC (stereo not drawn) [LQ104-E18b-2]
[1]
  Surface potential (mV): −1.109 mV
[2]
  pKa: 7.262
Female Balb/C mice [3]; Table 4B (FIG. 5B)
  AUC (p/s*hour): 5.32E+10 p/s*hour
[4]; [8]
  PDI: 0.084
[4]; [9]
  Particle size (nm): 84.46 nm
Female Balb/C mice [5]; Table 4D (FIG. 5D)
  AUC (p/s*hour): 3.06E+09 p/s*hour
[6]; [8]
  Encapsulation efficiency (%): 97.5%

## CCCCCCCCCC(CCCCCCC)OC(=O)CCCCCCN(CCO)CCN(CCO)CCCCCCC(=O)OC(CCCCCCC)CCCCCCCCC (stereo not drawn) [LQ104-E18b-3]
[1]
  Surface potential (mV): −2.466 mV
[2]
  pKa: 7.039
Female Balb/C mice [3]; Table 4B (FIG. 5B)
  AUC (p/s*hour): 1.06E+11 p/s*hour
[4]; [8]
  PDI: 0.063
[4]; [9]
  Particle size (nm): 90.39 nm
Female Balb/C mice [5]; Table 4D (FIG. 5D)
  AUC (p/s*hour): 4.80E+09 p/s*hour
[6]; [8]
  Encapsulation efficiency (%): 97.4%

## CCCCCCCCCCCOC(=O)CCCCCN(CCCCCCCC(=O)OC(CCCCCCCC)CCCCCCCC)CCOC(=O)CC(=O)OCCN(CCCCCCCC(=O)OC(CCCCCCCC)CCCCCCCC)CCCCCC(=O)OCCCCCCCCCCC [LQ107]
[4]; [10]
  PDI: 0.025
[4]; Table 1, Example 1 LNP preparations (ionizable lipid:DSPC:cholesterol:DMG-PEG)
  Particle size (nm): 83.56 nm
[6]; [10]
  Encapsulation efficiency (%): 83.7%
Female Balb/C mice [7]
  total Spike protein antibody titer: did not increase
